The record followed here is patent US10227357B2, “Compounds and methods for kinase modulation, and indications therefor” (Plexxikon Inc., priority 2012, dated 2019).

For one test, the target named is T1, c-kit kinase (Homo sapiens, UniProt P10721).
T1 construct: The c-kit (or kinase domain thereof) is an active kinase in AlphaScreen; poly-Histidine tag (in-house protein only) (cleaved yes); host or cells: E. coli BL21(DE3)RIL, co-expressed with PTP1B
Kind of test: c-Kit biochemical assay, AlphaScreen, 10 μM ATP. The note with it: c-kit biochemical inhibitory activity; read-out: Biochemical activity (IC50 μM) Kit. The method in brief: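 His-tagged c-Kit expressed in E. coli with co-expressed PTP1B (dephosphorylated), tag removed; 0.1 ng per reaction with biotinylated-peptide substrate in 50 mM HEPES pH 7.2, 5 mM MgCl2, 5 mM MnCl2, 5% DMSO, 10 μM ATP, 1 h at room temperature. Phosphorylation detected by AlphaScreen (streptavidin donor, PY20 acceptor beads); IC50 from 8-point 1:3 dilution series.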
For orientation: Bead proximity is the source of the signal in Alpha formats.

The target of another test is T2, c-kit mutant D816V (Homo sapiens, UniProt P10721, D816V/DEL694-753).
T2 construct: residues 551-934, kinase insertion domain residues 694-753 deleted; 6x-histidine (N); made in house; host or cells: E. coli Arctic Express (DE3) RIL (Stratagene)
Description: c-Kit mutant D816V biochemical assay, AlphaScreen. The note with it: c-kit D816V biochemical inhibitory activity; read-out: Biochemical activity (IC50 μM) Kit D816V. The method in brief: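 Purified His-tagged c-Kit D816V (E. coli-expressed) assayed in 25 mM HEPES pH 7.2 with Mg/Mn, 5% DMSO and 10 μM ATP, 30 min at room temperature, 8-point 1:3 dilutions. Phosphorylation detected by AlphaScreen with streptavidin donor and PY20 acceptor beads; IC50 from signal versus concentration.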

T2 sequence (P10721 with tags, fused parts or gaps DEL694-753/D816V): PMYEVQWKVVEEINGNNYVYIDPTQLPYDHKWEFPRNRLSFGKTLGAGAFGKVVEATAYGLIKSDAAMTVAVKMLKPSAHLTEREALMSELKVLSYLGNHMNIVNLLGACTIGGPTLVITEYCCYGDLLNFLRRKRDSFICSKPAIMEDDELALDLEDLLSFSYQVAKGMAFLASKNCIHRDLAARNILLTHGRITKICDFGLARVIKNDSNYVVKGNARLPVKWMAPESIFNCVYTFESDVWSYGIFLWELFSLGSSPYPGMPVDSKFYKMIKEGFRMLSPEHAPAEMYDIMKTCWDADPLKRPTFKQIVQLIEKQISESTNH
T1 sequence (P10721 26-976): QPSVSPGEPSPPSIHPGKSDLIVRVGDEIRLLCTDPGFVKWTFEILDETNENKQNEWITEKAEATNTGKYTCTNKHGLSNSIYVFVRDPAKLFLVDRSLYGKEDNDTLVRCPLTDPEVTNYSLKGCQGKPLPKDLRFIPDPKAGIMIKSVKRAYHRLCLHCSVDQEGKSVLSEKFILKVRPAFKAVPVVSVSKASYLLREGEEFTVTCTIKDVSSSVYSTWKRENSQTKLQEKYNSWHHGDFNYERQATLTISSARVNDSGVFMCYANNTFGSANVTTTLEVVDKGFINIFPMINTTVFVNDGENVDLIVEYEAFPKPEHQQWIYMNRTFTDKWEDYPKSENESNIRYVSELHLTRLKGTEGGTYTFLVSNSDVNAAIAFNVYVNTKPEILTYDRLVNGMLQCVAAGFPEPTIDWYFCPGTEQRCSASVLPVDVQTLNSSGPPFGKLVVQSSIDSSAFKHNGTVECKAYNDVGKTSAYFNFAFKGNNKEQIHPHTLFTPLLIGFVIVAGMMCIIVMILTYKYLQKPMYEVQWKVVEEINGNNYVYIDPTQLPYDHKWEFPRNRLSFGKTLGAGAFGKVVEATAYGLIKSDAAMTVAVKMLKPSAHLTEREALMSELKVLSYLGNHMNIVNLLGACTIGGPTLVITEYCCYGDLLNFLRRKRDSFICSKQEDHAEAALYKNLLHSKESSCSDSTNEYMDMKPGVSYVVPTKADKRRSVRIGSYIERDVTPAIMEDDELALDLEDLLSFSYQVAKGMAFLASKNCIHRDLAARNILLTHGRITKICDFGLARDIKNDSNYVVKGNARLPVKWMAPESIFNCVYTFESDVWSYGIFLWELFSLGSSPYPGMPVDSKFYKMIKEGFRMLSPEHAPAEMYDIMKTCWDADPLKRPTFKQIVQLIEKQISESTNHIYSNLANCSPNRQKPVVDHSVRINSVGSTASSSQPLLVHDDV

`Cc1ccc(-c2cc3c(N4CCN(C(=O)Nc5ccc(OC(F)(F)F)cc5)CC4)ncnc3[nH]2)cn1` [P-0115, 4-[6-(6-methyl-3-pyridyl)-7H-pyrrolo[2,3-d]pyrimidin-4-yl]-N-[4-(trifluoromethoxy)phenyl]piperazine-1-carboxamide]: the figures for the IC50 on c-kit kinase and at c-kit mutant D816V were 0.0001 to 1 µM and 10 to 200 µM, respectively.
As to `CNC(=O)c1cccc(-c2cc3c(N4CCN(C(=O)Nc5ccc(OC(F)(F)F)cc5)CC4)ncnc3[nH]2)c1` [P-0116, 4-[6-[3-(methylcarbamoyl)phenyl]-7H-pyrrolo[2,3-d]pyrimidin-4-yl]-N-[4-(trifluoromethoxy)phenyl]piperazine-1-carboxamide], the IC50 (in general, the concentration at which inhibition is half-maximal) was 0.0001 to 1 µM at c-kit kinase and 10 to 200 µM at c-kit mutant D816V.
In the case of `COc1cc(-c2cc3c(N4CCN(C(=O)Nc5ccc(OC(F)(F)F)cc5)CC4)ncnc3[nH]2)ccn1` [P-0117, 4-[6-(2-methoxy-4-pyridyl)-7H-pyrrolo[2,3-d]pyrimidin-4-yl]-N-[4-(trifluoromethoxy)phenyl]piperazine-1-carboxamide], the IC50 lay in the range of 0.0001 to 1 µM on c-kit kinase and 10 to 200 µM at c-kit mutant D816V.
Take `COc1ccc(-c2cc3c(N4CCN(C(=O)Nc5ccc(OC(F)(F)F)cc5)CC4)ncnc3[nH]2)cn1` [P-0118, 4-[6-(6-methoxy-3-pyridyl)-7H-pyrrolo[2,3-d]pyrimidin-4-yl]-N-[4-(trifluoromethoxy)phenyl]piperazine-1-carboxamide]: the 50% inhibitory concentration (IC50) on c-kit kinase lay in the range of 0.0001 to 1 µM; on c-kit mutant D816V, 10 to 200 µM.
Turning to `CS(=O)(=O)Nc1cccc(-c2cc3c(N4CCN(C(=O)Nc5ccc(OC(F)(F)F)cc5)CC4)ncnc3[nH]2)c1` [P-0119, 4-[6-[3-(methanesulfonamido)phenyl]-7H-pyrrolo[2,3-d]pyrimidin-4-yl]-N-[4-(trifluoromethoxy)phenyl]piperazine-1-carboxamide], the IC50 was in the range of 0.0001 to 1 µM on c-kit kinase and 1 to 10 µM on c-kit mutant D816V.
With `CC(=O)Nc1cccc(-c2cc3c(N4CCN(C(=O)Nc5ccc(OC(F)(F)F)cc5)CC4)ncnc3[nH]2)c1` [P-0120, 4-[6-(3-acetamidophenyl)-7H-pyrrolo[2,3-d]pyrimidin-4-yl]-N-[4-(trifluoromethoxy)phenyl]piperazine-1-carboxamide], the half-maximal inhibitory concentration (IC50) at c-kit kinase was 0.0001 to 1 µM; at c-kit mutant D816V it was 1 to 10 µM.
The matching figures for `N#Cc1cccc(-c2cc3c(N4CCN(C(=O)Nc5ccc(OC(F)(F)F)cc5)CC4)ncnc3[nH]2)c1` [P-0121, 4-[6-(3-cyanophenyl)-7H-pyrrolo[2,3-d]pyrimidin-4-yl]-N-[4-(trifluoromethoxy)phenyl]piperazine-1-carboxamide]: 10 to 200 µM and 10 to 200 µM.
In the same order, the values of `O=C(NCc1ccc(Cl)cn1)N1CCN(c2ncnc3[nH]c(-c4cccnc4)cc23)CC1` [P-0123, N-[(5-chloro-2-pyridyl)methyl]-4-[6-(3-pyridyl)-7H-pyrrolo[2,3-d]pyrimidin-4-yl]piperazine-1-carboxamide] are 0.0001 to 1 µM and 0.0001 to 1 µM.
The matching figures for `O=C(Nc1ccc(OC(F)F)cc1)N1CCN(c2ncnc3[nH]c(-c4ccc(F)cc4)cc23)CC1` [P-0125, N-[4-(difluoromethoxy)phenyl]-4-[6-(4-fluorophenyl)-7H-pyrrolo[2,3-d]pyrimidin-4-yl]piperazine-1-carboxamide]: 0.0001 to 1 µM and 1 to 10 µM.
In the case of `COc1cc(CNC(=O)N2CCN(c3ncnc4[nH]c(-c5cccnc5)cc34)CC2)ccn1` [P-0127, N-[(2-methoxy-4-pyridyl)methyl]-4-[6-(3-pyridyl)-7H-pyrrolo[2,3-d]pyrimidin-4-yl]piperazine-1-carboxamide], the results for the IC50 at c-kit kinase and on c-kit mutant D816V were 10 to 200 µM and 1 to 10 µM, respectively.
Regarding `COc1cccc(CNC(=O)N2CCN(c3ncnc4[nH]c(-c5cccnc5)cc34)CC2)n1` [P-0128, N-[(6-methoxy-2-pyridyl)methyl]-4-[6-(3-pyridyl)-7H-pyrrolo[2,3-d]pyrimidin-4-yl]piperazine-1-carboxamide], the IC50 at c-kit kinase lay in the range of 10 to 200 µM; on c-kit mutant D816V, 1 to 10 µM.
The matching figures for `NC(=O)N1CCN(c2ncnc3[nH]c(-c4cccnc4)cc23)CC1` [P-0130, 4-[6-(3-pyridyl)-7H-pyrrolo[2,3-d]pyrimidin-4-yl]piperazine-1-carboxamide]: 10 to 200 µM and 1 to 10 µM.
In the same order, the values of `O=C(NCc1cncc(F)c1)N1CCN(c2ncnc3[nH]c(-c4ccc(F)cc4)cc23)CC1` [P-0131, 4-[6-(4-fluorophenyl)-7H-pyrrolo[2,3-d]pyrimidin-4-yl]-N-[(5-fluoro-3-pyridyl)methyl]piperazine-1-carboxamide] are 1 to 10 µM and 1 to 10 µM.
In the same order, the values of `O=C(Nc1ccc(OC(F)(F)F)cc1)N1CCN(c2ncnc3[nH]c(-c4ccc(F)cc4)cc23)CC1` [P-0133, 4-[6-(4-fluorophenyl)-7H-pyrrolo[2,3-d]pyrimidin-4-yl]-N-[4-(trifluoromethoxy)phenyl]piperazine-1-carboxamide] are 0.0001 to 1 µM and 1 to 10 µM.
For `O=C(Nc1ccc(OC(F)(F)F)cc1)N1CCN(c2ncnc3[nH]c(-c4ccc(Cl)cc4)cc23)CC1` [P-0134, 4-[6-(4-chlorophenyl)-7H-pyrrolo[2,3-d]pyrimidin-4-yl]-N-[4-(trifluoromethoxy)phenyl]piperazine-1-carboxamide], the figures for the IC50 on c-kit kinase and at c-kit mutant D816V were 0.0001 to 1 µM and 1 to 10 µM, respectively.
In the same order, the values of `O=C(NCc1ccc(F)cc1)N1CCN(c2ncnc3[nH]cc(CC4CC4)c23)CC1` [P-0137, 4-[5-(cyclopropylmethyl)-7H-pyrrolo[2,3-d]pyrimidin-4-yl]-N-[(4-fluorophenyl)methyl]piperazine-1-carboxamide] are 10 to 200 µM and 1 to 10 µM.
In the same order, the values of `COc1cccc([C@H](C)NC(=O)N2CCN(c3ncnc4[nH]c(-c5ccc(F)cc5)cc34)CC2)c1` [P-0144, 4-[6-(4-fluorophenyl)-7H-pyrrolo[2,3-d]pyrimidin-4-yl]-N-[(1S)-1-(3-methoxyphenyl)ethyl]piperazine-1-carboxamide] are 1 to 10 µM and 0.0001 to 1 µM.
The matching figures for `COc1cccc([C@@H](C)NC(=O)N2CCN(c3ncnc4[nH]c(-c5ccc(F)cc5)cc34)CC2)c1` [P-0149, 4-[6-(4-fluorophenyl)-7H-pyrrolo[2,3-d]pyrimidin-4-yl]-N-[(1R)-1-(3-methoxyphenyl)ethyl]piperazine-1-carboxamide]: 10 to 200 µM and 10 to 200 µM.
With `N#Cc1cc2c(N3CCN(C(=O)NCc4ccc(F)cc4)CC3)ncnc2[nH]1` [P-0150, 4-(6-cyano-7H-pyrrolo[2,3-d]pyrimidin-4-yl)-N-[(4-fluorophenyl)rnethyl]piperazine-1-carboxamide], the IC50 on c-kit kinase and at c-kit mutant D816V was 10 to 200 µM throughout.
Turning to `Cc1nc(-c2cccc(NC(=O)N3CCN(c4ncnc5[nH]ccc45)CC3)c2)no1` [P-0151, N-[3-(5-methyl-1,2,4-oxadiazol-3-yl)phenyl]-4-(7H-pyrrolo[2,3-d]pyrimidin-4-yl)piperazine-1-carboxamide], the IC50 on c-kit kinase and on c-kit mutant D816V was 10 to 200 µM each time.
With `O=C(NCc1ccccc1Cl)N1CCN(c2ncnc3[nH]c(-c4ccc(F)cc4)cc23)CC1` [P-0154, N-[(2-chlorophenyl)methyl]-4-[6-(4-fluorophenyl)-7H-pyrrolo[2,3-d]pyrimidin-4-yl]piperazine-1-carboxamide], the IC50 at c-kit kinase was 10 to 200 µM; on c-kit mutant D816V, 1 to 10 µM.
